Source: patent US9072746B2, “Method for enhancing learning and memory impaired by neurodegenerative disorders and compounds and compositions for effecting the same” (The Board of Trustees of the Leland Stanford Junior …, priority 2010, dated 2015)
Entries after “also recorded” stand apart in the source; their conditions may differ.

How the values were obtained:
Assay type in all cases: in vivo
[1] = system: C57Bl/6J mice; assay: Contextual fear conditioning memory retrieval (FIG. 10A, B); settings: betaxolol 1 mg/kg s.c.
Experimental: In all experiments xamoterol 3 mg/kg, atenolol 3 mg/kg, and betaxolol 1 mg/kg were injected subcutaneously. […] Results are shown as mean+SEM (ns=not significant, *=p<0.05, and **=p<0.01).

[2] = system: male 2N mice; assay: Novel object recognition; settings: xamoterol 3 mg/kg s.c.
Experimental: In this part of the study, activity chamber and three cognitive tests, including T-maze spontaneous alternation, contextual fear conditioning (CFC), and novel object recognition were performed. In T-maze spontaneous alternation and contextual fear conditioning, both Ts65Dn and 2N male mice were divided into three treatment groups including normal saline (Vehicle), xamoterol, and betaxolol plus xamoterol groups. In the novel object recognition test, both Ts65Dn and 2N male mice were divided into two treatment groups, normal saline and xamoterol. The T-maze was performed exactly as previously described. […] On the first day (training day), animals were placed in the fear conditioning chamber, and after a 3-minute pre-shock period, they were exposed to 5 shocks (2 s, 0.5 mA,) with inter-trial intervals of 80 seconds and no tone. On the second day, the animals first received xamoterol, xamoterol plus betaxolol, or saline injection, and one hour later, they were placed in the same chamber for 5 minutes. Similar to the previous description of fear conditioning, freezing was defined as the complete lack of motion for a minimum of o.75 second. The Novel Object Recognition task is conducted in an open field arena (40 cm×40 cm). Mice were habituated in the testing room for 1 hour followed by 5 minutes habituation inside the arena without any objects. On 4th day animals were introduced 3 times to arena with 3 identical subjects for 10 minutes with 3 minutes inter trial intervals. On 5th day (24 hours after trainings) one of the objects replaced by a novel one and the time sniffing of each object were used for analysis. For testing the role of β1 adrenergic system, xamoterol and betaxolol (Tocris Bioscience, Ellisville, Mo.) were injected subcutaneously using 10 ml/kg normal saline as vehicle. Xamoterol, (3 mg/kg) was given one hour before testing and betaxolol (1 mg/kg) was given 30 minutes before testing.

[3] = system: male 2N mice; assay: Contextual fear conditioning; settings: xamoterol 3 mg/kg s.c. 1 h, betaxolol 1 mg/kg s.c. 30 min before testing
Experimental: (§1) Contextual and Cued fear conditioning was conducted for evaluation of fear-dependent learning and retrieval in the study. The test was performed using chambers from Coulbourn Instruments (Whitehall, Pa.). On the first day, the animals were placed in a chamber (Context A) for 3 min for baseline recording, followed by 5 tone-shock pairings. The shock (0.5 mA, 2 sec) was delivered following the tone (70 dB, 2 kHz, 20 sec) in each conditional/unconditional stimulus pairing. On the second day a novel chamber (Context B; new room, new olfactory environment, texture of floor, blue plastic inserts for walls, extra source of blue light, and visual cues) was used for cued testing. Three tones without shocks were presented to animals during a 3 min testing period following a 3 min pre-tone period. On the last day of the experiment, the mice were placed in Context A for 5 min without any conditional and unconditional stimulus {modified from the method described by (Saxe et al., 2006)}. Freezing was defined as the complete lack of motion for a minimum of 0.75 second as measured by FreezeFrame software (Actimetrics, Evanston, Ill.). The percent of freezing in each period was reported. For the startle response control test, an acoustic startle reflex apparatus (Med Associates Inc., St. Albans, Vt.) was used. The subjects were acclimated to the animal holder in the startle box for a total of 15 min over 3 consecutive-days prior to the experiment. The animals were exposed to 25 different trials with 10-20 second randomly variable inter-trial intervals. Five different intensities of startle pulses, 0, 90, 100, 110, and 120 dB, were randomly used, and each animal was randomly exposed 5 times to each intensity of the startle pulse. The duration of each startle pulse was 40 ms and the peak amplitude of the startle response in each trial was recorded for analysis. The holding cage on the apparatus was cleaned with 10% alcohol between each animal. […] In this part of the study, activity chamber and three cognitive tests, including T-maze spontaneous alternation, contextual fear conditioning (CFC), and novel object recognition were performed. In T-maze spontaneous alternation and contextual fear conditioning, both Ts65Dn and 2N male mice were divided into three treatment groups including normal saline (Vehicle), xamoterol, and betaxolol plus xamoterol groups. In the novel object recognition test, both Ts65Dn and 2N male mice were divided into two treatment groups, normal saline and xamoterol. The T-maze was performed exactly as previously described. […] On the first day (training day), animals were placed in the fear conditioning chamber, and after a 3-minute pre-shock period, they were exposed to 5 shocks (2 s, 0.5 mA,) with inter-trial intervals of 80 seconds and no tone. On the second day, the animals first received xamoterol, xamoterol plus betaxolol, or saline injection, and one hour later, they were placed in the same chamber for 5 minutes. Similar to the previous description of fear conditioning, freezing was defined as the complete lack of motion for a minimum of o.75 second. The Novel Object Recognition task is conducted in an open field arena (40 cm×40 cm). Mice were habituated in the testing room for 1 hour followed by 5 minutes habituation inside the arena without any objects. On 4th day animals were introduced 3 times to arena with 3 identical subjects for 10 minutes with 3 minutes inter trial intervals. On 5th day (24 hours after trainings) one of the objects replaced by a novel one and the time sniffing of each object were used for analysis. For testing the role of β1 adrenergic system, xamoterol and betaxolol (Tocris Bioscience, Ellisville, Mo.) were injected subcutaneously using 10 ml/kg normal saline as vehicle. Xamoterol, (3 mg/kg) was given one hour before testing and betaxolol (1 mg/kg) was given 30 minutes before testing.

[4] = system: male Ts65Dn mice; assay: Contextual fear conditioning; settings: for effect on memory retrieval deficit in contextual fear conditioning: xamoterol 3 mg/kg s.c. one hour before testing
Experimental: as §1

[5] = Plasma and brain sample analysis after subcutaneous injection (FIG. 10C, D); settings: after subcutaneous injection of 3 mg/kg
Experimental: FIG. 10 Xamoterol improves the memory retrieval dose-dependently by interaction with the adrenergic receptors in central nervous system. […] In all experiments xamoterol 3 mg/kg, atenolol 3 mg/kg, and betaxolol 1 mg/kg were injected subcutaneously. […] Results are shown as mean+SEM (ns=not significant, *=p<0.05, and **=p<0.01).

With O=C(NCCNCC(O)COc1ccc(O)cc1)N1CCOCC1 (stereo not drawn) [xamoterol] as the compound, how does the “reversal of betaxolol-induced impairment of memory retrieval” value [1] read?
Its value is “reverse the impairment dose-dependently”.

What about the “effect on novel object recognition performance” value ([2]; 2N mice) of the same compound?
Its value is “had no effect”.

And the “% of Total Investigation in Novel Object Recognition, Mean ± SEM” value ([2]; male 2N mice)?
The value was 78.6 ± 2.6%.

And the “% Freshing in Tone-cued Fear Conditioning, Mean ± SEM” value [3]?
Its value is 38.43 ± 8.26%.

And the “% Freshing in Tone-cued Fear Conditioning, Mean ± SEM” value ([4]; xamoterol 3 mg/kg s.c. 1 h, betaxolol 1 mg/kg s.c. 30 min before testing)?
The value was 45.36 ± 12.40%.

What about the “effect on memory retrieval deficit in contextual fear conditioning” value (shortened to “effect on memory retrieval deficit”) [4] of the same compound?
The value was “completely rescue”.

And the “effect on memory retrieval deficit” value ([4]; listed as Xamoterol)?
Its value is “rescued; also recorded: improved”.

And the “effect on memory retrieval deficit” value ([4]; listed as Xamoterole)?
The value was “Xamoterole rescues the deficit in”.

What about the “access to blood and brain (plasma and brain samples)” value [5] of the same compound?
Its value is “can get access to blood and brain”.
